pEC50: −log10 of the molar value.
These compounds were tested against T1, human-derived receptor TLR7 (Homo sapiens, UniProt Q9NYK1) (assay: Assay on agonistic activity for human-derived receptor TLR7 (HEK-Blue hTLR7 cells, HEK-Blue Detection Medium)). Details: 16 h incubation, absorbance at 655 nm, read-out: EC50.
T1 construct: host or cells: HEK-Blue hTLR7 cells (HEK293-derived reporter line)
T1 sequence (Q9NYK1 27-1049): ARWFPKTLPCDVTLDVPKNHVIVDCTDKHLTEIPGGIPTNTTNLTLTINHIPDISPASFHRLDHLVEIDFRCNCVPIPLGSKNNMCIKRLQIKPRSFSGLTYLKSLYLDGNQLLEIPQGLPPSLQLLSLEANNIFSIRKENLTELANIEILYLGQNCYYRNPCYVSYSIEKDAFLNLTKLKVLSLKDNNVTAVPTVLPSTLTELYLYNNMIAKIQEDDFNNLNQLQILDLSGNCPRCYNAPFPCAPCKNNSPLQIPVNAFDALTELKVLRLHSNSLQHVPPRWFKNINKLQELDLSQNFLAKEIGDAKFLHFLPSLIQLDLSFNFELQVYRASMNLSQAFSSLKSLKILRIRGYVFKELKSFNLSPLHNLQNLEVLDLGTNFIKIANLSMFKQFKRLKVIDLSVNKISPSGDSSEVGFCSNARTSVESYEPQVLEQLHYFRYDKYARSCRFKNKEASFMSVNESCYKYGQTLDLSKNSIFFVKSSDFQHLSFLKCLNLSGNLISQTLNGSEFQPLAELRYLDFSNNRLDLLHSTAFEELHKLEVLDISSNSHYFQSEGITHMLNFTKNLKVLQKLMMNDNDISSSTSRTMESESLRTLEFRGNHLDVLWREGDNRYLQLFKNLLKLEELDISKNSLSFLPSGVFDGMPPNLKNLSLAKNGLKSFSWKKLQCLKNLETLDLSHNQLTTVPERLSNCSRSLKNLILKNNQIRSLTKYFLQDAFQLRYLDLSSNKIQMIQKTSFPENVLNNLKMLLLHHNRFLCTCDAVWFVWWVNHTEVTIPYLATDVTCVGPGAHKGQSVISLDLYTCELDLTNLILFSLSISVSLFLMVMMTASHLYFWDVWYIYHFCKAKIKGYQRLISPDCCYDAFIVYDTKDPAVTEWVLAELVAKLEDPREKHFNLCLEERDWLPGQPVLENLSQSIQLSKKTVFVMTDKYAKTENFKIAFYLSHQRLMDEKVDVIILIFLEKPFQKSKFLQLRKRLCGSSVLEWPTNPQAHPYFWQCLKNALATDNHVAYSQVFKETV
Assay type: cell-based
Method: HEK-Blue™ hTLR7 cells (InvivoGen, hkb-htlr7) were cultured in a DMEM complete medium (Gibco, 12100) containing 10% FBS (Invitrogen, 10099141), 1% P/S (Invitrogen, 15140122), 10 μg/mL Blasticidin (InvivoGen, ant-bl-1), 100 μg/mL Zeocin (InvivoGen, ant-zn-1), and 100 μg/mL Normocin (InvivoGen, ant-nr-1). The cells were cultured in an incubator at 37° C. with 5% CO2. When HEK-Blue™ hTLR7 cells reached a growth density of 70%-80%, cell passage was needed.
The agonistic activity for the human-derived receptor TLR7 by HEK-Blue™ hTLR7 cells was assayed by HEK-Blue™ Detection Medium (InvivoGen, hd-det2). First, a bag of HEK-Blue™ Detection Medium powder was dissolved in 50 mL of ultra-pure sterile water for complete dissolution, and then the dissolved medium was filtered into a new 50 mL centrifuge tube through a 0.22 μm filter. Finally, antibiotics were added into the filtered detection medium until the final concentration was 1% for P/S and 100 μg/mL for Normocin. HEK-Blue™ Detection Medium was pre-heated to 37° C. in advance on the day of the assay on the activity for the TLR7 receptor, and the temperature was always maintained at 37° C.
The compound powder was dissolved in 100% DMSO (Sigma, D2650-100ML) to obtain a 10 mM stock solution, and the compound was completely dissolved by shaking with an oscillator. The stock solution of the compound was subjected to a 5-fold dilution to 2 mM with 100% DMSO. This was followed by a 3-fold serial dilution for a total of 8 concentration gradients. Then, each of the concentration gradients was subjected to a 20-fold dilution to 100 μM, 33.3 μM, 11.1 μM, 3.7 μM, 1.23 μM, […], 0.114 μM, and 0.05 μM using HEK-Blue™ Detection Medium. 20 μL of each of the dilutions was added to a 96-well cell culture plate (Corning, 3599).
On the day of the assay on the agonistic activity for the human-detived receptor TLR7, HEK-Blue™ hTLR7 cells has a growth density of 70%-80%, and the cell medium was removed. 1 mL of cell dissociation buffer (Gibco, 13151-014) was added to each 100 mm cell culture dish, and the cells were incubated in an incubator at 37° C. for 5 min. The cells were pipetted using a DMEM cell medium to obtain a single cell suspension, which was then centrifuged at 1000 rpm for 10 min to collect the cell pellet. The cell pellet was resuspended with HEK-Blue™ Detection Medium pre heated to 37° C. The cells were counted and diluted to 220,000 cells/mL. Finally, 180 μL of cell suspension (40,000 cells/well) was added to each well of the 96-well cell culture plate to which the compound had been added, and the cell suspension was mixed with the compound using a pipettor. Final concentrations of the compound were 10 μM, 3.3 μM, 1.1 μM, 0.37 μM, 0.12 μM, 0.04 μM, 0.01 μM, and 0.005 μM. After incubation in an incubator at 37° C. for 16 h, the absorbance was read at 655 nm using an M5e microplate reader (MD, USA).
The EC50 of the compound was calculated using the software GraphPad Prism (GraphPad Software, USA). The background reading of the detection culture was subtracted from the absorbance readings at 655 nm of all wells of the 96-well plate, the ratio of each well to the negative control well (the well without the compound) was calculated, and then the percentage of the ratio of each well to the positive control well (the well treated with 10 μM positive compound), i.e., the percentage of activity, was calculated. Finally, the sigmoidal dose-response (variable slope) curve between the percentage of activity and the concentration of the compound was calculated using the software GraphPad Prism to calculate the EC50 of the compound. […]

SMILES	pEC50
CCCCOc1nc(N)c2[nH]c(=O)n(Cc3cccc(CN4CCCC4=O)c3)c2n1 [Example 42, 6-amino-2-butoxy-9-(3-((2-oxopyrrolidin-1-yl)methyl)benzyl)-7,9-dihydro-8H-purin-8-one]	> 7.30
CCCCOc1nc(N)c2[nH]c(=O)n(Cc3ccc(CN4CCCC4)s3)c2n1 [Example 43, 6-amino-2-butoxy-9-((5-(pyrrolidin-1-ylmethyl)thien-2-yl)methyl)-7,9-dihydro-8H-purin-8-one]	> 7.30
CCCCOc1nc(N)c2[nH]c(=O)n(Cc3ccc(CN4CCC(O)C4)s3)c2n1 (stereo not drawn) [Example 44, 6-amino-2-butoxy-9-((5-((3-hydroxypyrrolidin-1-yl)methyl)thien-2-yl)methyl)-7,9-dihydro-8H-purin-8-one]	> 7.30
CCCCOc1nc(N)c2[nH]c(=O)n(Cc3ccc(CN4CCN(C(=O)CN)CC4)s3)c2n1 [Example 45, 6-amino-2-butoxy-9-((5-((4-glycylpiperazin-1-yl)methyl)thien-2-yl)methyl)-7,9-dihydro-8H-purin-8-one]	> 7.30
CCCCOc1nc(N)c2[nH]c(=O)n(Cc3ccc(CN4CCNCC4)s3)c2n1 [Example 46]	> 7.30
CCCCOc1nc(N)c2[nH]c(=O)n(Cc3ccc(CN4CCN(C(=O)CO)CC4)s3)c2n1 [Example 47]	> 7.30
CCCCOc1nc(N)c2[nH]c(=O)n(Cc3ccc(CN4CCN(C(=O)COC)CC4)s3)c2n1 [Example 48]	> 7.30
CCCCOc1nc(N)c2[nH]c(=O)n(Cc3ccc(CN4CCC(N)C4)s3)c2n1 (stereo not drawn) [Example 49, 6-amino-9-((5-((3-aminopyrrolidin-1-yl)methyl)thien-2-yl)methyl)-2-butoxy-7,9-dihydro-8H-purin-8-one]	> 7.30
CCCCOc1nc(N)c2c(n1)CN(Cc1ccc(C(=O)N3CCCC3)cc1)C(=O)N2 [Example 50, 8-amino-6-butoxy-3-(4-(pyrrolidin-1-ylcarbonyl)benzyl)-3,4-dihydropyrimido[5,4-d]pyrimidin-2(1H)-one]	> 7.30
CCCCOc1nc(N)c2c(n1)CN(Cc1ccc(CN3CCCC3)c(C)c1)C(=O)N2 [Example 66]	7.00 to 7.30
CCCCOc1nc(N)c2c(n1)CN(Cc1ccc(Cn3ccnc3)c(C)c1)C(=O)N2 [Example 76]	7.00 to 7.30
CCCCOc1nc(N)c2c(n1)CN(Cc1ccc(C)c(CN3CCCC3)c1)C(=O)N2 [Example 78]	> 7.30
CCN(CC)Cc1ccc(Cn2c(=O)[nH]c3c(N)nc4ccccc4c32)cc1C [Example 113]	7.00 to 7.30
Nc1nc2ccccc2c2c1[nH]c(=S)n2Cc1ccc(CN2CCCC2)cc1 [Example 155, 4-amino-1-(4-(pyrrolidin-1-ylmethyl)benzyl)-1,3-dihydro-2H-imidazo[4,5-c]quinoline-2-thione]	> 7.30
CCSc1nc2c(N)nc3ccccc3c2n1Cc1ccc(CN2CCCC2)cc1 [Example 156]	> 7.30
COCSc1nc2c(N)nc3ccccc3c2n1Cc1ccc(CN2CCCC2)cc1 [Example 157]	> 7.30
CCCSc1nc2c(N)nc3ccccc3c2n1Cc1ccc(CN2CCCC2)cc1 [Example 159]	> 7.30
CCCCSc1nc2c(N)nc3ccccc3c2n1Cc1ccc(CN2CCCC2)cc1 [Example 161]	7.00 to 7.30
Nc1nc2ccccc2c2c1nc(SCC1CC1)n2Cc1ccc(CN2CCCC2)cc1 [Example 163]	> 7.30
C=CCCSc1nc2c(N)nc3ccccc3c2n1Cc1ccc(CN2CCCC2)cc1 [Example 165]	7.00 to 7.30
C=CCSc1nc2c(N)nc3ccccc3c2n1Cc1ccc(CN2CCCC2)cc1 [Example 166]	> 7.30

SMILES	pEC50
N#CCCSc1nc2c(N)nc3ccccc3c2n1Cc1ccc(CN2CCCC2)cc1 [Example 177]	7.00 to 7.30
Nc1nc2ccccc2c2c1nc(SCCF)n2Cc1ccc(CN2CCCC2)cc1 [Example 178]	7.00 to 7.30
Nc1nc2ccccc2c2c1nc(SCC(F)F)n2Cc1ccc(CN2CCCC2)cc1 [Example 179]	> 7.30
Nc1nc2ccccc2c2c1nc(SCCC(F)(F)F)n2Cc1ccc(CN2CCCC2)cc1 [Example 181]	> 7.30
CSc1nc2c(N)nc3ccccc3c2n1Cc1ccc(CNC(C)C)cc1 [Example 188]	7.00 to 7.30
CSc1nc2c(N)nc3ccccc3c2n1Cc1ccc(CN(C)C)cc1 [Example 189]	7.00 to 7.30
CCSc1nc2c(N)nc3ccccc3c2n1Cc1ccc(CN(C)C)cc1 [Example 190]	7.00 to 7.30
CCSc1nc2c(N)nc3ccccc3c2n1Cc1ccc(CNC(C)C)cc1 [Example 191]	> 7.30
CSc1nc2c(N)nc3ccccc3c2n1Cc1ccc(-c2cnn(CCNC3CCC3)c2)cc1 [Example 196]	7.00 to 7.30
CSc1nc2c(N)nc3ccccc3c2n1Cc1ccc(CN2CC(O)C2)cc1 [Example 206]	7.00 to 7.30
CCSc1nc2c(N)nc3ccccc3c2n1Cc1ccc(CN2CC(O)C2)cc1 [Example 207]	7.00 to 7.30
CCSc1nc2c(N)nc3ccccc3c2n1Cc1ccc(CN2CC[C@H](O)C2)cc1 [Example 209]	7.00 to 7.30
C=CCSc1nc2c(N)nc3ccccc3c2n1Cc1ccc(CN2CC[C@H](F)C2)cc1 [Example 210]	7.00 to 7.30
C=CCSc1nc2c(N)nc3ccccc3c2n1Cc1ccc(CN2CC[C@@H](F)C2)cc1 [Example 211]	7.00 to 7.30
CSc1nc2c(N)nc3ccccc3c2n1Cc1ccc(N2CCN(C)CC2)cc1 [Example 212]	> 7.30
CSc1nc2c(N)nc3ccccc3c2n1Cc1ccc(CN2CCNCC2)cc1 [Example 213]	7.00 to 7.30
CCSc1nc2c(N)nc3ccccc3c2n1Cc1ccc(CN2CCNCC2)cc1 [Example 214]	7.00 to 7.30
C=CCSc1nc2c(N)nc3ccccc3c2n1Cc1ccc(CN2CCNCC2)cc1 [Example 215]	> 7.30
CSc1nc2c(N)nc3ccccc3c2n1Cc1ccc(CN2CCNCC2)s1 [Example 220]	7.00 to 7.30
CSc1nc2c(N)nc3ccccc3c2n1Cc1ccc(OCCN(C)C)nc1 [Example 223]	7.00 to 7.30
COc1cc(CN2CCCC2)ccc1Cn1c(SC)nc2c(N)nc3ccccc3c21 [Example 233]	> 7.30
